Results as given in patent US9980943B2, “Methods of treating muscular dystrophy” (BOARD OF REGENTS OF THE NEVADA SYSTEM OF HIGHER EDUCATION, …, priority 2013, dated 2018).

Assays:
Format in all cases: cell-based, mouse
[1] = test system: β-galactosidase in CMV-LacZ C2C12 myoblasts; assay: CMV-LacZ secondary screen in C2C12 myoblasts (β-Gal stabilizing assay); details: CMV-LacZ C2C12 myoblasts
Method in brief: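 First, C2C12 myoblasts were transfected with a linearized CMV-LACZ vector and clonal lines selected by FDG β-gal assay. Then cells were exposed to compounds at 0.5, 1, 5, 10, 20 and 40 μM in 96-well format, two replicates each, and β-gal measured.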

[2] = test system: α7 integrin (LacZ reporter in α7+/LacZ myotubes); assay: Myotube α7 integrin FDG assay (Burkin assay in myotubes, 96-well); details: myotubes
[3] = test system: β-galactosidase in CMV-LacZ C2C12 myotubes; assay: CMV-LacZ secondary screen in C2C12 myotubes (β-Gal stabilizing assay); details: C2C12 CMV-LacZ myotubes, fold relative to DMSO
Method in brief: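 β-gal stabilization was measured in C2C12 myoblasts or myotubes stably transfected with a CMV-driven LacZ construct, using the FDG β-gal assay. Compounds were tested in dose-response at 0.5, 1, 5, 10, 20 and 40 μM, with two replicates per point.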

[4] = test system: α7 integrin (LacZ reporter in α7βgal+/− myoblasts); assay: Myoblast α7+/LacZ integrin FDG assay (Burkin assay in myoblasts, 96-well); details: α7+/LacZ myoblasts, 96-well

Row | SMILES | CMV-LACZ in Myoblasts (β-galactosidase activity relative to DMSO) ([1]; 0.5 uM) | CMV-LACZ in Myoblasts (β-galactosidase activity relative to DMSO) ([1]; 1 uM) | CMV-LACZ in Myoblasts (β-galactosidase activity relative to DMSO) ([1]; 5 uM) | CMV-LACZ in Myoblasts (β-galactosidase activity relative to DMSO) ([1]; 10 uM) | CMV-LACZ in Myoblasts (β-galactosidase activity relative to DMSO) ([1]; 20 uM) | CMV-LACZ in Myoblasts (β-galactosidase activity relative to DMSO) ([1]; 40 uM) | Burkin Assay in Myotubes, α7 integrin LacZ reporter signal relative to DMSO ([2]; 0.5 uM) | Burkin Assay in Myotubes, α7 integrin LacZ reporter signal relative to DMSO ([2]; 1 uM) | Burkin Assay in Myotubes, α7 integrin LacZ reporter signal relative to DMSO ([2]; 5 uM) | Burkin Assay in Myotubes, α7 integrin LacZ reporter signal relative to DMSO ([2]; 10 uM) | Burkin Assay in Myotubes, α7 integrin LacZ reporter signal relative to DMSO ([2]; 20 uM) | Burkin Assay in Myotubes, α7 integrin LacZ reporter signal relative to DMSO ([2]; 40 uM) | CMV-LACZ in Myotubes, signal relative to DMSO ([3]; 0.5 uM) | CMV-LACZ in Myotubes, signal relative to DMSO ([3]; 1 uM) | CMV-LACZ in Myotubes, signal relative to DMSO ([3]; 5 uM) | CMV-LACZ in Myotubes, signal relative to DMSO ([3]; 10 uM) | CMV-LACZ in Myotubes, signal relative to DMSO ([3]; 20 uM) | CMV-LACZ in Myotubes, signal relative to DMSO ([3]; 40 uM) | Burkin Assay in Myoblasts, signal relative to DMSO ([4]; 0.5 uM) | Burkin Assay in Myoblasts, signal relative to DMSO ([4]; 1 uM) | further results
1 | COc1ccccc1NS(=O)(=O)c1cc(NC(=O)c2ccc(Cl)nc2)ccc1N1CCCC1 [MLS002248819-01] | 0.9206 | 1.2206 | 1.2604 | 1.1575 | 1.7330 | 1.0270 | 1.117 | 1.198 | 1.066 | 1.24 | 0.9243 | 0.8508 | 1.0819 | 0.9505 | 1.1171 | 1.1534 | 0.9847 | 1.1929 | 1.126 | 1.113 | Burkin Assay in Myoblasts, signal relative to DMSO ([4]; 5 uM): 1.068; Burkin Assay in Myoblasts, signal relative to DMSO ([4]; 10 uM): 1.0849; Burkin Assay in Myoblasts, signal relative to DMSO ([4]; 20 uM): 0.8184; Burkin Assay in Myoblasts, signal relative to DMSO ([4]; 40 uM): 0.7689
2 | c1ccc(-c2cn3c4c(sc3n2)CCCC4)cc1 [MLS002636056-01] | 0.9392 | 0.9021 | 1.0394 | 1.2571 | 1.1173 | 0.8270 | 0.9619 | 1.089 | 0.9203 | 1.027 | 0.9045 | 1.167 | 0.9855 | 1.2636 | 1.0269 | 1.1613 | 1.4090 | 1.1160 | 1.157 | 1.066 | Burkin Assay in Myoblasts, signal relative to DMSO ([4]; 5 uM): 1.037; Burkin Assay in Myoblasts, signal relative to DMSO ([4]; 10 uM): 1.224; Burkin Assay in Myoblasts, signal relative to DMSO ([4]; 20 uM): 0.9377; Burkin Assay in Myoblasts, signal relative to DMSO ([4]; 40 uM): 0.8203
